Tests used:
canarygrass = experiment: Test D pre-/postemergence herbicide test; assay type: in vivo, Phalaris minor; details: for Plant response rating: Canarygrass, scale 0 to 100; for Plant response rating, Canarygrass: scale 0 to 100 (0 no effect, 100 complete control)
Excerpt: (§1) Seeds of plant species selected from bluegrass (annual bluegrass, Poa annua), blackgrass (Alopecurus myosuroides), canarygrass (littleseed canarygrass, Phalaris minor), chickweed (common chickweed, Stellaria media), galium (catchweed bedstraw, Galium aparine), bromegrass, downy (downy bromegrass, Bromus tectorum), field poppy (Papaver rhoeas), field violet (Viola arvensis), foxtail, green (green foxtail, Setaria viridis), deadnettle (henbit deadnettle, Lamium amplexicaule), ryegrass, Italian (Italian ryegrass, Lolium multiflorum), kochia (Kochia scoparia), lambsquarters (Chenopodium album), oilseed rape (Brassica napus), pigweed (Amaranthus retroflexus), chamomile (scentless chamomile, Matricaria inodora), Russian thistle (Salsola kali), speedwell (bird's-eye speedwell, Veronica persica), barley, spring (spring barley, Hordeum vulgare), wheat, spring (spring wheat, Triticum aestivum), buckwheat, wild (wild buckwheat, Polygonum convolvulus), mustard, wild (wild mustard, Sinapis arvensis), oat, wild (wild oat, Avena fatua), radish, wild (wild radish, Raphanus raphanistrum), […]), barley, winter (winter barley, Hordeum vulgare), and wheat, winter (winter wheat, Triticum aestivum) were planted into a silt loam soil and treated preemergence with test chemicals formulated in a non-phytotoxic solvent mixture which included a surfactant. At the same time, these species were planted in pots containing Redi-Earth® planting medium (Scotts Company, 14111 Scottslawn Road, Marysville, Ohio 43041) comprising spaghnum peat moss, vermiculite, wetting agent and starter nutrients and treated with postemergence applications of the test chemicals formulated in the same manner. Plants ranged in height from 2 to 18 cm (1- to 4-leaf stage). Treated plants and controls were maintained in a controlled growth environment for 7 to 21 days after which time all species were compared to controls and visually evaluated. Plant response ratings, summarized in Table D, are based on a scale of 0 to 100 where 0 is no effect and 100 is complete control. A dash (-) response means no test result.

kochia = experiment: Test D pre-/postemergence herbicide test; assay type: in vivo, Kochia scoparia; details: for Plant response rating: Kochia, scale 0 to 100; for Plant response rating, Kochia: scale 0 to 100 (0 no effect, 100 complete control)
Excerpt: as §1

oilseed rape = experiment: Test D pre-/postemergence herbicide test; assay type: in vivo, Brassica napus; details: for Plant response rating: Postemergence, Oilseed Rape, scale 0 to 100; for Plant response rating, Oilseed Rape: Preemergence, scale 0 to 100 (0 no effect, 100 complete control)
Excerpt: as §1

goosegrass = experiment: Test E preemergence herbicide test; assay type: in vivo, Eleusine indica; parameters: key: 0 = no effect, 100 = complete control
Excerpt: (§2) Seeds of plant species selected from corn (Zea mays), soybean (Glycine max), velvetleaf (Abutilon theophrasti), lambsquarters (Chenopodium album), wild poinsettia (Euphorbia heterophylla), pigweed, palmer (palmer pigweed, Amaranthus palmeri), waterhemp (common waterhemp, Amaranthus rudis), surinam grass (Brachiaria decumbens), crabgrass, large (large crabgrass, Digitaria sanguinalis), crabgrass, Brazil (Brazilian crabgrass, Digitaria horizontalis), panicum, fall (fall panicum, Panicum dichotomiflorum), foxtail, giant (giant foxtail, Setaria faberii), foxtail, green (green foxtail, Setaria viridis), goosegrass (Eleusine indica), johnsongrass (Sorghum halepense), ragweed (common ragweed, Ambrosia elatior), barnyardgrass (Echinochloa crus-galli), sandbur (southern sandbur, Cenchrus echinatus), arrowleaf […] rhombifolia), ryegrass, Italian (Italian ryegrass, Lolium multiflorum), dayflower, VA (Virginia dayflower, Commelina virginica), field bindweed (Convolvulus arvensis), morningglory (Ipomoea coccinea), nightshade (eastern black nightshade, Solanum ptycanthum), kochia (Kochia scoparia), nutsedge, yellow (yellow nutsedge, Cyperus esculentus), cocklebur (common cocklebur, Xanthium strumarium), smartweed (ladysthumb smartweed, Polygonum Persicaria) and beggarticks (hairy beggarticks, Bidens pilosa), were planted into a silt loam soil and treated preemergence with test chemicals formulated in a non-phytotoxic solvent mixture which included a surfactant. Treated plants and controls were maintained in a greenhouse for 21 days, after which time all species were compared to controls and visually evaluated. Plant response ratings, summarized in Table E, are based on a scale of 0 to 100 where 0 is no effect and 100 is complete control. A dash (-) response means no test result.

sandbur = experiment: Test E preemergence herbicide test; assay type: in vivo, Cenchrus echinatus; parameters: key: 0 = no effect, 100 = complete control
Excerpt: as §2

nutsedge, yellow = experiment: Test E preemergence herbicide test; assay type: in vivo, Cyperus esculentus; parameters: key: 0 = no effect, 100 = complete control
Excerpt: as §2

Row | SMILES | Plant response rating (canarygrass; Postemergence, 16 g ai/ha) | Plant response rating (canarygrass; Postemergence, 31 g ai/ha) | Plant response rating (canarygrass; Postemergence, 62 g ai/ha) | Plant response rating (canarygrass; Postemergence, 125 g ai/ha) | Plant response rating (canarygrass; Postemergence, 250 g ai/ha) | Plant response rating (kochia; Postemergence, 16 g ai/ha) | Plant response rating (kochia; Postemergence, 62 g ai/ha) | Plant response rating (kochia; Postemergence, 125 g ai/ha) | Plant response rating (kochia; Postemergence, 250 g ai/ha) | Plant response rating (oilseed rape; 16 g ai/ha) | Plant response rating (oilseed rape; 31 g ai/ha) | Plant response rating (oilseed rape; 62 g ai/ha) | Plant response rating (oilseed rape; 125 g ai/ha) | Plant response rating (oilseed rape; 250 g ai/ha) | Plant response rating, Goosegrass (goosegrass; 31 g ai/ha) | Plant response rating, Goosegrass (goosegrass; 62 g ai/ha) | Plant response rating, Goosegrass (goosegrass; 125 g ai/ha) | Plant response rating, Goosegrass (goosegrass; 250 g ai/ha) | Plant response rating, Sandbur (sandbur; 31 g ai/ha) | Plant response rating, Sandbur (sandbur; 62 g ai/ha) | further results
1 | O=C1NCC(c2ccc(F)c(F)c2)C1C(=O)Nc1cccc(F)c1 (racemic) [Compound 12] | 0 | 0 | 15 | 15 | 30 | 5 | 20 | 20 | 35 | 10 | 10 | 10 | 20 | 25 | – | – | – | – | – | – | Plant response rating, Canarygrass (canarygrass; Preemergence, 31 g ai/ha): 0; Plant response rating, Canarygrass (canarygrass; Preemergence, 62 g ai/ha): 0; Plant response rating, Canarygrass (canarygrass; Preemergence, 16 g ai/ha): 0; Plant response rating (canarygrass; Preemergence, 125 g ai/ha): 20; Plant response rating (canarygrass; Preemergence, 250 g ai/ha): 40; Plant response rating (kochia; Postemergence, 31 g ai/ha): 5; Plant response rating, Kochia (kochia; Preemergence, 31 g ai/ha): 0; Plant response rating, Kochia (kochia; Preemergence, 62 g ai/ha): 0; Plant response rating, Kochia (kochia; Preemergence, 16 g ai/ha): 0; Plant response rating (kochia; Preemergence, 125 g ai/ha): 0; Plant response rating (kochia; Preemergence, 250 g ai/ha): 0; Plant response rating, Oilseed Rape (oilseed rape; 31 g ai/ha): 0; Plant response rating, Oilseed Rape (oilseed rape; 62 g ai/ha): 10; Plant response rating, Oilseed Rape (oilseed rape; 125 g ai/ha): 10; Plant response rating, Oilseed Rape (oilseed rape; 250 g ai/ha): 20; Plant response rating, Oilseed Rape (oilseed rape; 16 g ai/ha): 0
2 | O=C1NCC(c2ccc(C(F)(F)F)cc2)C1C(=O)Nc1ccc(F)c(F)c1F (centres unmarked) [Compound 232] | – | – | – | – | – | – | – | – | – | – | – | – | – | – | 35 | 80 | 85 | 95 | 35 | 65 | Plant response rating, Sandbur (sandbur; 125 g ai/ha): 90; Plant response rating, Sandbur (sandbur; 250 g ai/ha): 90; Plant response rating, Nutsedge, Yellow (nutsedge, yellow; 31 g ai/ha): 0; Plant response rating, Nutsedge, Yellow (nutsedge, yellow; 62 g ai/ha): 0; Plant response rating, Nutsedge, Yellow (nutsedge, yellow; 125 g ai/ha): 0; Plant response rating, Nutsedge, Yellow (nutsedge, yellow; 250 g ai/ha): 0
3 | O=C1NCC(c2cc(F)c(F)c(F)c2)C1C(=O)Nc1ccccc1F (racemic) [Compound 34] | 0 | 0 | 0 | 0 | 0 | 0 | 0 | 10 | 25 | 0 | 0 | 0 | 0 | 20 | – | – | – | – | – | – | –
4 | O=C1NCC(c2ccc(F)cc2)C1C(=O)Nc1ccccc1F (racemic) [Compound 16] | – | – | – | – | – | – | – | – | – | – | – | – | – | – | 0 | 0 | 0 | 0 | 0 | 35 | Plant response rating, Goosegrass (goosegrass; 16 g ai/ha): 0; Plant response rating, Sandbur (sandbur; 16 g ai/ha): 0; Plant response rating, Sandbur (sandbur; 125 g ai/ha): 70; Plant response rating, Sandbur (sandbur; 250 g ai/ha): 95; Plant response rating, Nutsedge, Yellow (nutsedge, yellow; 16 g ai/ha): 0; Plant response rating, Nutsedge, Yellow (nutsedge, yellow; 31 g ai/ha): 0; Plant response rating, Nutsedge, Yellow (nutsedge, yellow; 62 g ai/ha): 0; Plant response rating, Nutsedge, Yellow (nutsedge, yellow; 125 g ai/ha): 0; Plant response rating, Nutsedge, Yellow (nutsedge, yellow; 250 g ai/ha): 0
5 | O=C1NCC(c2cccc(C(F)(F)F)c2)C1C(=O)Nc1cccc(F)c1F (centres unmarked) [Compound 241] | – | – | – | – | – | – | – | – | – | – | – | – | – | – | – | – | – | – | – | – | Plant response rating, Canarygrass (canarygrass; Preemergence, 31 g ai/ha): 20; Plant response rating, Canarygrass (canarygrass; Preemergence, 62 g ai/ha): 45; Plant response rating, Canarygrass (canarygrass; Preemergence, 125 g ai/ha): 65; Plant response rating (canarygrass; Preemergence, 250 g ai/ha): 75; Plant response rating, Kochia (kochia; Preemergence, 31 g ai/ha): 20; Plant response rating, Kochia (kochia; Preemergence, 62 g ai/ha): 30; Plant response rating, Kochia (kochia; Preemergence, 125 g ai/ha): 80; Plant response rating (kochia; Preemergence, 250 g ai/ha): 70; Plant response rating, Oilseed Rape (oilseed rape; 31 g ai/ha): 0; Plant response rating, Oilseed Rape (oilseed rape; 62 g ai/ha): 0; Plant response rating, Oilseed Rape (oilseed rape; 125 g ai/ha): 5; Plant response rating, Oilseed Rape (oilseed rape; 250 g ai/ha): 10
6 | O=C1NCC(c2cccc(Br)c2)C1C(=O)Nc1ccccc1F (centres unmarked) [Compound 66] | – | – | – | – | – | – | – | – | – | – | – | – | – | – | 0 | 0 | 0 | 0 | 0 | 0 | Plant response rating, Goosegrass (goosegrass; 16 g ai/ha): 0; Plant response rating, Sandbur (sandbur; 16 g ai/ha): 0; Plant response rating, Sandbur (sandbur; 125 g ai/ha): 0; Plant response rating, Sandbur (sandbur; 250 g ai/ha): 35; Plant response rating, Nutsedge, Yellow (nutsedge, yellow; 16 g ai/ha): 0; Plant response rating, Nutsedge, Yellow (nutsedge, yellow; 31 g ai/ha): 0; Plant response rating, Nutsedge, Yellow (nutsedge, yellow; 62 g ai/ha): 0; Plant response rating, Nutsedge, Yellow (nutsedge, yellow; 125 g ai/ha): 0; Plant response rating, Nutsedge, Yellow (nutsedge, yellow; 250 g ai/ha): 0
7 | O=C1NCC(c2cc(F)c(F)c(F)c2)C1C(=O)Nc1ccccc1C(F)(F)F (racemic) [Compound 33] | 0 | 0 | 0 | 0 | 0 | 0 | 0 | 0 | 10 | 0 | 0 | 10 | 20 | 30 | – | – | – | – | – | – | Plant response rating (kochia; Postemergence, 31 g ai/ha): 0

Reference: patent publication US10294202B2, “Pyrrolidinones as herbicides” (FMC Corporation, priority 2013, dated 2019)
